# Assay results reported in article PMC6934184, “Selective DNA-PKcs inhibition extends the therapeutic index of localized radiotherapy and chemotherapy” (The Journal of Clinical Investigation, 2019).
# Biological target: T1, PRKCE (PKC epsilon) (Homo sapiens, UniProt Q02156)
# T1 construct: purchased Thermo Fisher Scientific (Life Technologies) SelectScreen
# Assay: SelectScreen Z'LYTE
# Format: biochemical
# In short: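 Percent values come from Thermo SelectScreen profiling of NU5455, combining activity and binding assays. CSF1R was run in Z'LYTE format at Km app ATP, and CAMK1 in Adapta format with ATP listed at 10.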
# T1 sequence (Q02156 whole entry): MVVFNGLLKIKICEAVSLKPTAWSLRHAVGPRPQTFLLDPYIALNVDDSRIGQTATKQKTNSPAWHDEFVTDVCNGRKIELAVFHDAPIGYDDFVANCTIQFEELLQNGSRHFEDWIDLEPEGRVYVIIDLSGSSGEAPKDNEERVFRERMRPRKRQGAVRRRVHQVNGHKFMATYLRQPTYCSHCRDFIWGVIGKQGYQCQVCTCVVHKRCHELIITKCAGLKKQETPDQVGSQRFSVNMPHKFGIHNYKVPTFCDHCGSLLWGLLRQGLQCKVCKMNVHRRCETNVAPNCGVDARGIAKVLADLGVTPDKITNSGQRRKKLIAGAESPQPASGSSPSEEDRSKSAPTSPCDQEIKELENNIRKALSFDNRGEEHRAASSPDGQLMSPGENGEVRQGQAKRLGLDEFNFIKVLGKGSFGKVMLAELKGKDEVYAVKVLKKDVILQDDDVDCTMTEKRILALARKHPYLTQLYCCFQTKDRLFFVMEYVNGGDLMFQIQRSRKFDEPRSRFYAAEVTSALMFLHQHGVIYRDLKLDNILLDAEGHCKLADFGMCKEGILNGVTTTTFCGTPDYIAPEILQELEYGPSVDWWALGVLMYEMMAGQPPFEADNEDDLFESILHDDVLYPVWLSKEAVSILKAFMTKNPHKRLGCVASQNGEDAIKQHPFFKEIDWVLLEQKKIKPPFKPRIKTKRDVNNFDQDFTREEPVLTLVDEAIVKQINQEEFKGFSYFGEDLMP
smiles,measurement,value
CN(C(=O)CN1CCOCC1)c1ccc2sc3c(-c4cccc5c(=O)cc(N6CC7CCC(C6)O7)oc45)cccc3c2c1 [NU5455],inhibition at 1 µM,-4.9%
